# Reference: US10222381B2, “Water-soluble peptide fluorescence material” (NATIONAL CHIAO TUNG UNIVERSITY, priority 2015, dated 2019)
# Non-standard residues stand in square brackets, D forms with d. Residues, ends and D or L forms follow the SMILES beside them. ξ: configuration not given here. *: point of attachment. Acetyl(1,8-naphthalimido) = O=C1c2cccc3cccc(c23)C(=O)N1CC(=O)*; X2 = O=C1c2cccc3c(N4CCCCC4)ccc(c23)C(=O)N1CC(=O)*; ξY = NC(Cc1ccc(O)cc1)C(=O)O; ξE = NC(CCC(=O)O)C(=O)O
# Experiments:
# [1] = Fluorescence in co-solvents of water and dimethyl sulfoxide (aggregation-induced emission); format: physicochemical; settings: for fluorescence intensity with increase of the volume ratio of water: aggregation-induced emission; for color of observed fluorescence / emission wavelength: water/dimethyl sulfoxide co-solvent
# Excerpt: Continuing in FIG. 4, which illustrates a fluorescence intensity and an emission wavelength of the water-soluble peptide fluorescence material of formula (III-1) in co-solvents having different proportions of water and dimethyl sulfoxide. In Experimental Example 401, 402, 403, 404, 405, 406, 407, 408, 409, 410 and 411, water respectively has 0, 10, 20, 30, 40, 50, 60, 70, 80, 90 and 100% of a total volume of the co-solvent. […] As such, no significant fluorescence marker is shown, so it is difficult to observe apparent fluorescence visually. […] Given the above, the fluorescence intensity of the water-soluble peptide fluorescence material of formula (III-1) is increased corresponding to the increase of the volume ratio of water, which is also referred as aggregation-induced emission (AIE). In addition, the water-soluble peptide fluorescence material of formula (III-1) has the emission wavelength of about 400 nm, so the observed fluorescence has a color of blue violet.
# Continuing in FIG. 9, which illustrates a fluorescence intensity and an emission wavelength of the water-soluble peptide fluorescence material of formula (III-23) in co-solvents having different proportions of water and dimethyl sulfoxide. In Experimental Examples 901, 902, 903, 904, 905, 906, 907, 908, 909 and 910, water respectively has 0, 10, 20, 30, 40, 50, 60, 70, 80 and 90% of a total volume of the co-solvent. […] Given the above, the fluorescence intensity of the water-soluble peptide fluorescence material of formula (III-23) is increased corresponding to the increase of the volume ratio of water and has a phenomenon of aggregation-induced emission in water. In addition, the water-soluble peptide fluorescence material of formula (III-23) has the emission wavelength of about 550 nm, so the observed fluorescence has a color of green.
# FIG. 12 illustrates a fluorescence intensity and an emission wavelength of the water-soluble peptide fluorescence material of formula (III-28) in co-solvents having different proportions of water and dimethyl sulfoxide. In Experimental Example 1201, 1202, 1203, 1204, 1205, 1206, 1207, 1208, 1209, 1210 and 1211, water respectively has 0, 10, 20, 30, 40, 50, 60, 70, 80, 90 and 99% of a total volume of the co-solvent. […] As such, no significant fluorescence marker is shown, so it is difficult to observe apparent fluorescence visually. […] Given the above, the fluorescence intensity of the water-soluble peptide fluorescence material of formula (III-28) is increased corresponding to the increase of the volume ratio of water and has a phenomenon of aggregation-induced emission in water. In addition, the water-soluble peptide fluorescence material of formula (III-28) has the emission wavelength of about 400 nm, so the observed fluorescence has a color of violet. FIG. 13 depicts a ratio of the fluorescence intensity between Experimental Examples 1202 to 1211 and Experimental Example 1201, at the emission wavelength of 400 nm.
# FIG. 15 illustrates a fluorescence intensity and an emission wavelength of the water-soluble peptide fluorescence material of formula (III-30) in co-solvents having different proportions of water and dimethyl sulfoxide. In Experimental Example 1501, 1502, 1503, 1504, 1505, 1506, 1507, 1508, 1509, 1510 and 1511, water respectively has 0, 10, 20, 30, 40, 50, 60, 70, 80, 90 and 100% of a total volume of the co-solvent. […] As such, no significant fluorescence marker is shown, so it is difficult to observe apparent fluorescence visually. […] Accordingly, the fluorescence intensity of the water-soluble peptide fluorescence material of formula (III-30) is increased corresponding to the increase of the volume ratio of water and has a phenomenon of aggregation-induced emission in water. In addition, the water-soluble peptide fluorescence material of formula (III-30) has the emission wavelength of about 400 to 425 nm, so the observed fluorescence has a color of blue violet. […]
# [2] = Fluorescence intensity and emission wavelength at different pH values; format: physicochemical; settings: for color of fluorescence / emission peak: pH 5; for pH value of the highest fluorescence intensity: pH 10 to 3 tested; for fluorescence intensity: pH 10 to 6
# Excerpt: In Experimental Examples 210, 220, 230, 240, 250, 260, 270 and 280, the above water-soluble peptide fluorescence material is respectively placed in environments having a pH value of 10, 9, 8, 7, 6, 5, 4 and 3 for testing. In Experimental Examples 210 to 230, the water-soluble peptide fluorescence material is respectively placed in environments having the pH value of 10, 9 and 8.
# Continuing in FIG. 5, which illustrates a fluorescence intensity and an emission wavelength of the water-soluble peptide fluorescence material of formula (III-10) at different pH values. In Experimental Examples 510, 520, 530, 540, 550, 560, 570 and 580, the water-soluble peptide fluorescence material of formula (III-10) is respectively placed in environments having a pH value of 10, 9, 8, 7, 6, 5, 4 and 3 for testing. In Experimental Examples 510 to 560, the water-soluble peptide fluorescence material is placed in environments having the pH value of 10 to 5, and two emission peaks are shown in FIG. 5. […] Then, the pH value is further decrease to 4 (Experimental Example 570) and 3 (Experimental Example 580), and only the emission peak at about 400 nm is remained, so the observed fluorescence has a color of purple in Experimental Examples 570 and 580. Therefore, the water-soluble peptide fluorescence material of formula (III-10) is able to detect and mark locations of acidic cells by change of the color.
# Continuing in FIG. 7, which illustrates a fluorescence intensity and an emission wavelength of the water-soluble peptide fluorescence material of formula (III-21) at different pH values. In Experimental Examples 710, 720, 730, 740, 750, 760, 770 and 780, the water-soluble peptide fluorescence material of formula (III-21) is respectively placed in environments having a pH value of 10, 9, 8, 7, 6, 5, 4 and 3 for testing. In Experimental Examples 710 to 750, the water-soluble peptide fluorescence material is placed in environments having the pH value of 10 to 6. […] However, the fluorescence intensity of Experimental Examples 780 is decreased when the pH value is decreased from 4 to 3.
# Continuing in FIG. 8, which illustrates a fluorescence intensity and an emission wavelength of the water-soluble peptide fluorescence material of formula (III-22) at different pH values. In Experimental Examples 810, 820, 830, 840, 850, 860, 870 and 880, the water-soluble peptide fluorescence material of formula (III-22) is respectively placed in environments having a pH value of 10, 9, 8, 7, 6, 5, 4 and 3 for testing. In Experimental Examples 810 to 850, the water-soluble peptide fluorescence material is respectively placed in environments having the pH value of 10 to 6. […] In addition, the fluorescence intensity of Experimental Example 860 (pH=5) is 90 times of the fluorescence intensity of Experimental Example 810 […], which represents that the water-soluble peptide fluorescence material has obvious light-emitting interval and easily to identify and detect positions of the acidic cells.
# FIG. 10 illustrates a fluorescence intensity and an emission wavelength of the water-soluble peptide fluorescence material of formula (III-23) at different pH values. In Experimental Examples 1010, 1020, 1030, 1040, 1050, 1060, 1070 and 1080, the water-soluble peptide fluorescence material of formula (III-23) is respectively placed in environments having a pH value of 10, 9, 8, 7, 6, 5, 4 and 3 for testing. In Experimental Examples 1010 to 1050, the water-soluble peptide fluorescence material is respectively placed in environments having the pH value of 10 to 6. […] The water-soluble peptide fluorescence material not only provides obvious marker, but also achieves the same effect of the fluorescence at a low concentration, and thereby reduces the costs.
# FIG. 11 illustrates a fluorescence intensity and an emission wavelength of the water-soluble peptide fluorescence material of formula (III-27) at different pH values. […]
fluorescence intensity with increase of the volume ratio of water [1],fluorescence intensity ([1]; water 90%),color of observed fluorescence [1],emission wavelength [1],color of fluorescence [2],emission peak [2],fluorescence intensity [2],change of fluorescence intensity ([2]; pH decreased to 5),change of fluorescence intensity ([2]; pH decreased to 4 and 3),SMILES,also measured
increased,100 fluorescent units,blue violet,about 400 nm,–,–,–,–,–,O=C(CN1C(=O)c2cccc3cccc(c23)C1=O)NC(Cc1ccccc1)C(=O)O (centres unmarked) [III-1],fluorescence intensity ([1]; water 0 to 70% of co-solvent volume): low fluorescence intensity; fluorescence intensity ([1]; water 80%): 50 fluorescent units; fluorescence intensity ([1]; water 100%): about 650 fluorescent units
–,–,–,–,–,–,–,–,–,O=C(CN1C(=O)c2cccc3cccc(c23)C1=O)NCC(=O)NC(Cc1ccccc1)C(=O)O (centres unmarked) [III-10],color of observed fluorescence ([2]; pH 4 and 3): purple; emission peak (only one remained) ([2]; pH 4 and 3): about 400 nm; color of observed fluorescence ([2]; pH 10 to 5): mixed light of green light and purple light; emission peak (first) ([2]; pH 10 to 5): about 400 nm; emission peak (other) ([2]; pH 10 to 5): about 500 nm
–,–,–,–,green,about 550 nm,low fluorescence intensities,significantly increased,–,O=C(O)CCC(NC(=O)[C@H](Cc1ccccc1)NC(=O)CN1C(=O)c2cccc3c(N4CCCCC4)ccc(c23)C1=O)C(=O)O (some centres unmarked) [III-21],pH value of the highest fluorescence intensity [2]: 4; change of fluorescence intensity ([2]; pH decreased from 4 to 3): decreased; change of fluorescence intensity ([2]; pH decreased from 5 to 4): further increased
–,–,–,–,yellow,about 575 nm,low fluorescence intensities,significantly increased,–,O=C(O)C[C@H](NC(=O)[C@H](CC(=O)O)NC(=O)[C@H](Cc1ccccc1)NC(=O)CN1C(=O)c2cccc3c(N4CCCCC4)ccc(c23)C1=O)C(=O)O [III-22],ratio of fluorescence intensity Experimental Example 860 (pH=5) to Experimental Example 810 (pH=1) [2]: 90 times; pH value of the highest fluorescence intensity [2]: 5; change of fluorescence intensity ([2]; pH decreased from 4 to 3): slightly increased; change of fluorescence intensity ([2]; pH decreased from 5 to 4): decreased
increased,–,green,about 550 nm,green,about 525 nm,low fluorescence intensities,significantly increased,slightly increased,O=C(O)C[C@H](NC(=O)[C@H](CC(=O)O)NC(=O)[C@H](Cc1ccccc1)NC(=O)CN1C(=O)c2cccc3c(N4CCCCC4)ccc(c23)C1=O)C(=O)O [III-23],"fluorescence intensity ([1]; water 90% (Experimental Example 910), water 0 to 90% tested): highest fluorescence intensity"
–,–,–,–,green,about 525 nm,low fluorescence intensities,significantly increased,significantly increased,O=C(O)CCC(NC(=O)C(CCC(=O)O)NC(=O)C(CCC(=O)O)NC(=O)[C@H](Cc1ccccc1)NC(=O)CN1C(=O)c2cccc3c(N4CCCCC4)ccc(c23)C1=O)C(=O)O (some centres unmarked) [III-27] (X2-F[ξE][ξE][ξE]-OH),–
increased,150 fluorescent units,violet,about 400 nm,purple,about 400 nm,low fluorescence intensities,significantly increased,significantly increased,"C[C@H](NC(=O)[C@H](CCC(=O)O)NC(=O)CNC(=O)[C@H](CC(=O)O)NC(=O)[C@H](Cc1ccccc1)NC(=O)CN1C(=O)c2cccc3cccc(c23)C1=O)C(=O)O [III-28] ({Acetyl(1,8-naphthalimido)}-FDGEA-OH)",ratio of fluorescence intensity Experimental Example 1211 (99% water) to 1201 (0% water) ([1]; emission wavelength of 400 nm): 225 times; fluorescence intensity ([1]; water 0 to 80%): low fluorescence intensity; fluorescence intensity ([1]; water 99%): about 110 fluorescent units
increased,200 fluorescent units,blue violet,–,–,–,–,–,–,"O=C(CNC(=O)CNC(=O)CN1C(=O)c2cccc3cccc(c23)C1=O)NCC(=O)NCC(=O)NCC(=O)NC(Cc1ccc(O)cc1)C(=O)O (centres unmarked) [III-30] ({Acetyl(1,8-naphthalimido)}-GGGGG[ξY]-OH)",ratio of fluorescence intensity Experimental Example 1511 to 1501 (0% water) ([1]; emission wavelength of 410 nm): 100 times; fluorescence intensity ([1]; water 0 to 80%): lower than 100 fluorescent units; fluorescence intensity ([1]; water 99%): about 700 fluorescent units
